Source: ChEMBL document CHEMBL1147059, “Replication and homologous recombination repair regulate DNA double-strand break formation by the antitumor alkylator ecteinascidin 743” (Proc Natl Acad Sci U S A, 2007)
Active and inactive are the calls of the source. The rule behind the calls is not given here.

Experiments:
HeLa [1] = experiment: Induction of DNA double strand breaks in human HeLa cells assessed as phosphorylated histone H2AX formation after 1 hr by immunostaining; type: functional, cell-based
[2] = Induction of chromosome damage in BRCA2 deficient Chinese hamster V-C8 cells assessed as number of damaged chromosomes per 100 metaphases at 1 nM for 1 hr followed by post incubation in drug-free media for 24 hrs; type: functional, Cricetulus griseus
[3] = Induction of chromosome damage in BRCA2 deficient Chinese hamster V-C8 cells assessed as number of radials per 100 metaphases at 1 nM for 1 hr followed by post incubation in drug-free media for 24 hrs; type: functional, Cricetulus griseus
CHO-AA8 [4] = experiment: Effect on cell cycle progression in Chinese hamster AA8 cells assessed as increase in accumulation at G2/M phase at 6 nM for 1 hr followed by post incubation in drug-free media for 6 hrs relative to control; type: functional, cell-based; details: Cricetulus griseus
CCRF-CEM [5] = experiment: Induction of DNA double strand breaks in human CEM cells at 100 nM by alkaline comet assay; type: functional, cell-based
[6] = Cytotoxicity in homologous recombination repair XRCC2 gene deficient Chinese hamster irs1 cells assessed as cell viability by MTT assay relative to wild type cells; type: functional, Cricetulus griseus
HeLa [7] = experiment: Reduction of cellular viability in human HeLa cells at 20 nM after 1 hr by MTT assay; type: functional
[8] = Effect on cell cycle progression in Chinese hamster homologous recombination repair XRCC3 gene deficient irs1SF cells assessed as increase in accumulation at S phase at 6 nM for 1 hr followed by post incubation in drug-free media for 6 hrs relative to control; type: functional, Cricetulus griseus
[9] = Effect on cell cycle progression in Chinese hamster homologous recombination repair XRCC3 gene deficient irs1SF cells assessed as increase in accumulation at G2/M phase at 6 nM for 1 hr followed by post incubation in drug-free media for 24 hrs relative to control; type: functional, Cricetulus griseus
Lymphocyte = experiment: Induction of DNA double strand breaks in nonproliferating human lymphocytes at 100 nM by alkaline comet assay; type: functional, cell-based
CHO-AA8 [10] = experiment: Induction of DNA double strand breaks in Chinese hamster AA8 cells at 100 nM after 1 hr by comet assay; type: functional, Cricetulus griseus
CHO-AA8 [11] = experiment: Induction of DNA double strand breaks in Chinese hamster AA8 cells assessed as phosphorylated histone H2AX formation after 1 hr by immunostaining; type: functional, cell-based; details: Cricetulus griseus
[12] = Induction of chromosome damage in BRCA2 deficient Chinese hamster V-C8 cells assessed as number of damaged chromosomes per 100 metaphases at 100 nM for 1 hr followed by post incubation in drug-free media for 24 hrs; type: functional, Cricetulus griseus
CCRF-CEM [13] = experiment: Induction of DNA double strand breaks in human CEM cells assessed as phosphorylated histone H2AX formation after 1 hr by immunostaining; type: functional, cell-based
CHO-AA8 [14] = experiment: Effect on cell cycle progression in Chinese hamster AA8 cells assessed as accumulation at G2 phase at 140 nM; type: functional, cell-based; details: Cricetulus griseus
CHO-AA8 [15] = experiment: Effect on cell cycle distribution in Chinese hamster AA8 cells assessed as isotoxic dose after 1 hr; type: functional, Cricetulus griseus
V79 [16] = experiment: Induction of chromosome damage in Chinese hamster V79 cells assessed as number of radials per 100 metaphases at 10 nM for 1 hr followed by post incubation in drug-free media for 24 hrs; type: functional, Cricetulus griseus
V79 [17] = experiment: Induction of chromosome damage in Chinese hamster V79 cells assessed as number of radials per 100 metaphases at 100 nM for 1 hr followed by post incubation in drug-free media for 24 hrs; type: functional, Cricetulus griseus
[18] = Induction of chromosome damage in BRCA2 deficient Chinese hamster V-C8 cells assessed as number of radials per 100 metaphases at 10 nM for 1 hr followed by post incubation in drug-free media for 24 hrs; type: functional, Cricetulus griseus
V79 [19] = experiment: Induction of chromosome damage in Chinese hamster V79 cells assessed as number of damaged chromosomes per 100 metaphases at 10 nM for 1 hr followed by post incubation in drug-free media for 24 hrs; type: functional, Cricetulus griseus
HeLa [20] = experiment: Induction of DNA double strand breaks in human S-phase synchronized HeLa cells by alkaline comet assay; type: functional, cell-based
[21] = Induction of chromosome damage in BRCA2 deficient Chinese hamster V-C8 cells assessed as number of radials per 100 metaphases at 5 nM for 1 hr followed by post incubation in drug-free media for 24 hrs; type: functional, Cricetulus griseus
[22] = Induction of chromosome damage in BRCA2 deficient Chinese hamster V-C8 cells assessed as number of damaged chromosomes per 100 metaphases at 2 nM for 1 hr followed by post incubation in drug-free media for 24 hrs; type: functional, Cricetulus griseus
HeLa [23] = experiment: Induction of DNA double strand breaks in human HeLa cells after 1 hr by neutral comet assay; type: functional, cell-based
[24] = Induction of DNA double strand breaks in Chinese hamster homologous recombination repair XRCC3 gene deficient irs1SF cells at 100 nM after 1 hr by comet assay; type: functional, Cricetulus griseus
CHO-AA8 [25] = experiment: Effect on cell cycle progression in Chinese hamster AA8 cells assessed as accumulation at S phase at 140 nM; type: functional, cell-based; details: Cricetulus griseus
V79 [26] = experiment: Induction of chromosome damage in Chinese hamster V79 cells assessed as number of damaged chromosomes per 100 metaphases at 100 nM for 1 hr followed by post incubation in drug-free media for 24 hrs; type: functional, Cricetulus griseus
[27] = Induction of chromosome damage in BRCA2 deficient Chinese hamster V-C8 cells assessed as number of damaged chromosomes per 100 metaphases at 5 nM for 1 hr followed by post incubation in drug-free media for 24 hrs; type: functional, Cricetulus griseus
[28] = Cytotoxicity in homologous recombination repair RAD51C gene deficient Chinese hamster CL-V4B cells assessed as cell viability by MTT assay relative to wild type cells; type: functional, Cricetulus griseus
V79 [29] = experiment: Induction of chromosome damage in Chinese hamster V79 cells assessed as number of damaged chromosomes per 100 metaphases at 50 nM for 1 hr followed by post incubation in drug-free media for 24 hrs; type: functional, Cricetulus griseus
V79 [30] = experiment: Induction of chromosome damage in Chinese hamster V79 cells assessed as number of radials per 100 metaphases at 50 nM for 1 hr followed by post incubation in drug-free media for 24 hrs; type: functional, Cricetulus griseus
[31] = Effect on cell cycle distribution in Chinese hamster homologous recombination repair XRCC3 gene deficient irs1SF cells after 1 hr followed by post incubation in drug-free media; type: functional, Cricetulus griseus
[32] = Induction of chromosome damage in BRCA2 deficient Chinese hamster V-C8 cells assessed as number of radials per 100 metaphases at 2 nM for 1 hr followed by post incubation in drug-free media for 24 hrs; type: cell-based, Cricetulus griseus; details: v-c8, 1 h, 0.002 µM
HeLa [33] = experiment: Reduction of DNA synthesis in human HeLa cells at 30 nM after 1 hrs […]; type: functional; set-up: scale not given: the % may be the effect or the level left
HeLa [34] = experiment: Reversal of induction of DNA double strand breaks in human HeLa cells at >50 nM in presence of aphidicolin after 1 hr by neutral comet assay; type: functional, cell-based
[35] = Cytotoxicity in homologous recombination repair XRCC3 gene deficient Chinese hamster irs1SF cells assessed as cell viability by MTT assay relative to wild type cells; type: functional, Cricetulus griseus
[36] = Cytotoxicity in homologous recombination repair BRCA2 gene deficient Chinese hamster V-C8 cells assessed as cell viability by MTT assay relative to wild type cells; type: functional, Cricetulus griseus

COc1cc2c(cc1O)CCN[C@]21CS[C@@H]2c3c(OC(C)=O)c(C)c4c(c3[C@H](COC1=O)N1[C@@H]2[C@H]2c3c(cc(C)c(OC)c3O)C[C@@H]([C@@H]1O)N2C)OCO4 [TRABECTEDIN]
Activity (HeLa [1]): Active
Activity [2]: 14
Activity [3]: 1
Activity (CHO-AA8 [4]): inactive
Activity (CCRF-CEM [5]): Active
Fold change [6]: 8
Activity (HeLa [7]): 50%
Activity [8]: 65%
Activity [9]: 35%
Activity (Lymphocyte): inactive
Activity (CHO-AA8 [10]): 20%
Activity (CHO-AA8 [11]): Active
Activity [12]: 100
Activity (CCRF-CEM [13]): Active
Activity (CHO-AA8 [14]): Active
Activity (CHO-AA8 [15]): 140 nM
Activity (V79 [16]): 0
Activity (V79 [17]): 24
Activity [18]: 3
Activity (V79 [19]): 1
Activity (HeLa [20]): Toxic
Activity [21]: 2
Activity [22]: 42
Activity (HeLa [23]): Dose-dependent effect
Activity [24]: 19%
Activity (CHO-AA8 [25]): Active
Activity (V79 [26]): 57
Activity [27]: 90
Fold change [28]: 8
Activity (V79 [29]): 50
Activity (V79 [30]): 27
IC50 [31]: 6 nM
Activity [32]: 1
Activity (HeLa [33]): 50%
Activity (HeLa [34]): Active
Fold change [35]: 23
Fold change [36]: 18
